# Data published in patent US10174068B2, “Methods of functionalization and reagents used in such methods using an aza-isatoic anhydride or a derivative thereof, biological molecules thus treated and kits” (BIOMERIEUX, priority 2012, dated 2019).
# Columns and labels:
# ORN with 27 bases = assay: Functionalization of a 27-mer ORN, degree of functionalization (Df) by HPLC after nuclease P1/alkaline phosphatase hydrolysis
# Description: A comparison of the reactivity of the aza-isatoic anhydride derivative 14 relative to the reference isatoic derivative, Biot-peg4-SS-IAMe as described in WO-A-2012/076794, with respect to a 27-base model ORN (seq: 5′-AAC-CGC-AGU-GAC-ACC-CUC-AUC-AUU-ACA-3′, Eurogentec, Liege Science Park, Belgium) is carried out. For this, a fixed amount of ORN is reacted with an isatoic anhydride derivative conjugated with a molecule of interest, at 65° C. and at room temperature. The reaction is monitored by HPLC at 260 nm as was described previously in patent application WO-A-2012/076794 in example 3. This analysis makes it possible to detect the disappearance of the peak corresponding to the initial ORN and the appearance of peaks corresponding to the acylated ORN. These products have a greater retention time, and an absorption spectrum corresponding both to that of the ORN, and to that of the functionalizing reagent.
# For precise evaluation of the degree of functionalization (Df), the ORN population (labelled and unlabelled) is separated from the surplus marker by precipitation with acetone/lithium perchlorate. Then the ORNs thus obtained are submitted to hydrolysis with nuclease P1 (Aldrich, Saint Louis, USA) and with alkaline phosphatase (Aldrich, Saint Louis, USA) in order to hydrolyse the phosphate diester bonds of the ORN.
# LC-MS analysis of this mixture then allows several populations to be characterized and identified: • unlabelled ribonucleosides; • labelled mono-nucleoside adducts, which differ very clearly by a longer retention time, and by a UV spectrum characteristic of the nucleic acids and of the functionalizing reagent; • dinucleotides acylated at 2′ which, because of the anthranilate group substituted with the group of interest at 2′, cannot be cleaved by the nuclease P1; • per-acylated 2′OH trinucleotides or tetranucleotides, which may form theoretically but which are statistically very little represented (as this would then require two or three consecutive acylations of 2′OH), are not investigated.
# The degree of functionalization of the ORN (Df) is evaluated by measuring: • the area corresponding to the terminal mononucleoside adducts (functionalized at 2′ and at 3′) and the area corresponding to the acylated dinucleotides (functionalized internally on the 2′OH) • compared to the area of the peaks corresponding to the four ribonucleosides.
# In a standard experiment, the equivalent of 8 nmol of an ORN with 27 bases (5′-AAC-CGC-AGU-GAC-ACC-CUC-AUC-AUU-ACA-3′, Eurogentec, Liege Science Park, Belgium) in solution in water is first dried in a centrifugal evaporator (RCT 60, Jouan, St Herblain, France) in a 2-mL plastic Eppendorf tube. The dry residue obtained is first dissolved in 40 μL of water, then 20 μl of a buffered solution is added (in the example, a 1M triethylammonium acetate buffer solution, pH 7, Aldrich, St Louis, USA ref: 09748-100 ml). Finally, 20 μl of a solution of an isatoic anhydride derivative at 120 mM in DMSO is incorporated in the preceding solution (either the reference molecule Biot-peg4-SS-IAMe as described in FR 1060102 or the aza-isatoic derivative Biot-peg4-SS-azaIAMe (14) in this example). The mixture is incubated for 60 minutes at room temperature or at 65° C. in a stove on a rack pre-equilibrated in temperature. To remove the salts and the surplus marker, the mixture is then purified by triple precipitation in 1.2 mL of an acetone/LiClO4 180 mM 75/25 mixture. […]
# [1] = system: mixture of HIV RNA transcripts and genomic calf DNA; assay: Selective extraction of HIV RNA transcripts from a mixture with genomic DNA (functionalization/capture/cleavage/elution, Qubit quantification); settings: tag at 1.5 mM; for Final DNA/RNA ratio: after elution step 4
# Description: For this, two biological models of nucleic acids were selected, HIV transcripts for RNA and genomic calf DNA. In order to compare the efficacy of the aza-isatoic derivative 14, these tests were also carried out on the reference compound Biot-peg4-SS-IAMe at 65° C. and at room temperature.
# The nucleic acids used in this example are as follows: • HIV transcripts WT 1500 bases, at 1.94 μg/μL. • gDNA calf thymus, SIGMA (Saint Louis, USA), ref. D4764-5UN, at 1.92 μg/μL.
# The following reagents are put in three 0.2-ml plastic tubes (Table 2 below):
# In each case, the final concentrations of TEAAc and of functionalizing reagent are 250 mM and 1.5 mM respectively.
# The three tubes are incubated for 1 hour at room temperature or at 65° C. on a heated rack.
# Purification of the nucleic acids for each test was carried out in 5 different tubes of equivalent volume, in order to meet the optimum conditions for this step (i.e. 1 mg of magnetic silica per 2 μg of nucleic acids). Thus, each test is distributed in five 1.5-mL Eppendorf tubes i.e. 5 times 2.1 μL (2 μg of AN). 900 μL of lysis buffer (Easy Mag buffer, ref. 280134, bioMerieux, Marcy l'Etoile, France) and 50 μL of magnetic silica particles (EasyMAG silica, ref. 280133, bioMerieux, Marcy l'Etoile, France) are added to each tube. The latter are immediately stirred by the vortex effect after adding the silica, and then incubated for 10 minutes at room temperature. After magnetization on a DYNAL magnet, the supernatants are removed by aspiration with a pipette. For the next washing steps, the tubes are always stirred by the vortex effect and magnetized, followed by removal of the supernatant. A first washing is carried out with 500 μL of washing buffer 1 (Easy Mag buffer, ref. 280130, bioMerieux, Marcy l'Etoile, France). Two washings are then carried out with 900 μL and then 500 μL of washing buffer 2 (Easy Mag buffer, ref. 280131, bioMerieux, Marcy l'Etoile, France). Finally, a last washing step is carried out with 500 μL of elution buffer 3 (Easy Mag buffer, ref. 280132, bioMerieux, Marcy l'Etoile, France) at room temperature. […] The latter are analysed with the Qubit® Fluorometer instrument, ref. Q32857, Invitrogen (Carlsbad, Calif., United States of America), and using the kits Quant-iT RNA Assay Kit 5-100 ng (ref. Q32855, Invitrogen, Carlsbad, Calif., United States of America), and Quant-iT dsDNA HS Assay Kit 0.2-100 ng (ref. Q32854, Invitrogen, Carlsbad, Calif., United States of America). These analysis kits allow an RNA/DNA ratio to be determined in a mixture.
# To perform this capture on magnetic particles, it is necessary to store each of the tests divided into 5 tubes in the preceding purification step. […] This supernatant is analysed as before with the Qubit® Fluorometer. […]
# ODN with 27 bases = assay: Functionalization of a 27-mer ODN (chemo-selectivity RNA versus DNA); settings: room temperature, 1 hour, reagent 30 mM, DMSO/TEAAc 250 mM pH 7 25/75
# Description: 8 nmol of ODN with 27 bases, Seq: 5′-AAC-CGC-AGT-GAC-ACC-CTC-ATC-ATT-ACA-3′ (Eurogentec, Liege Science Park, Belgium) or 8 nmol of an ORN with 27 bases, Seq: 5′-AAC-CGC-AGU-GAC-ACC-CUC-AUC-AUU-ACA-3′ (Eurogentec, Liege Science Park, Belgium) is reacted with the aza-isatoic anhydride derivative (14) at 30 mM in a mixture DMSO/buffer TEAAc (250 mM pH 7) 25/75, for 1 hour at room temperature. After precipitation with acetone and hydrolysis with nuclease P1 and alkaline phosphatase, the hydrolysed fragments are analysed by LC-MS, as described in example 3. An example of chromatograms for monitoring the reaction of the ODN or of the ORN with compound 14 is shown in FIG. 6, where traces A, B and C correspond respectively to the initial ORN, the ORN functionalized with compound 14 and precipitated, and the ORN functionalized with 14, precipitated and hydrolysed. Traces D, E and F represent the same results obtained with the ODN.
# [2] = 65° C., 60 minutes, TEAAc pH 7, reagent 120 mM in DMSO diluted in the mixture
# [3] = room temperature, 1 hour, TEAAc pH 7, reagent 30 mM
melting point [°C],Compound,uncorrected degree of functionalization (Df) of the ORN (ORN with 27 bases; [2]) [%],uncorrected degree of functionalization (Df) of the ORN (ORN with 27 bases; [3]) [%],S* (intermediate selectivity index) ([1]; functionalization at 65° C.),Final DNA/RNA ratio ([1]; functionalization at 65° C.),factor of increase of reactivity with respect to an oligoribonucleotide relative to the reference compound (ORN with 27 bases; 65° C.),uncorrected degree of functionalization of the ODN (ODN with 27 bases) [%],S* (intermediate selectivity index) ([1]; functionalization at Rt),Final DNA/RNA ratio ([1]; functionalization at Rt)
,"O=C(CCCCC1SCC2NC(=O)NC21)NCCOCCOCCOCCC(=O)NCCSSCCC(=O)Nc1cccc2[nH]c(=O)oc(=O)c12 (centres unmarked) [Biot-peg4-SS-IAMe, reference compound]",7.5,1,6,14/86,,,,
125,"Cn1c(=O)oc(=O)c2cc(CCC(=O)NCCSSCCNC(=O)CCCCC3SCC4NC(=O)NC43)cnc21 (centres unmarked) [Compound 12, 5-[(3AS,6AR)-2-OXO-HEXAHYDRO-1H-THIENO[3,4-D]IMIDAZOLIDIN-4-YL]-N-(2-{[2-(3-{1-METHYL-2,4-DIOXO-1H,2H,4H-PYRIDO[2,3-D][1,3]OXAZIN-6-YL}PROPANAMIDO)ETHYL]DISULPHANYL}ETHYL)PENTANAMIDE]",,,,,,,,
,"Cn1c(=O)oc(=O)c2cc(CCC(=O)NCCSSCCNC(=O)CCOCCOCCOCCOCCNC(=O)CCCCC3SCC4NC(=O)NC43)cnc21 [Compound 14, 1-{5-[(3aS,6aR)-2-oxo-hexahydro-1H-thieno[3,4-d]imidazolidin-4-yl]pentanamido}-N-(2-{[2-(3-{1-methyl-2,4-dioxo-1H,2H,4H-pyrido[2,3-d][1,3]oxazin-6-yl}propanamido)ethyl]disulphanyl}ethyl)-3,6,9,12-tetraoxapentadecan-15-amide]",13.5,7.8,,,1.8,0.5,30,4/96
